Results taken from ChEMBL document CHEMBL1201862, “PubChem BioAssay data set” (2004).
Active and inactive are the calls of the source.

How the values were obtained:
[1] = blockers of HIV-1 ZM109 envelope-driven cell-cell fusion – HeLa effector, CEM target cells, luciferase, cherry-pick, dose response (AID 652058); format: functional, cell-based;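 also: luciferase signal from HIV-1 Env mediated cell-cell fusion of effector and target cells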
[2] = blockers of HIV-1 envelope-mediated cell-cell fusion – cherry-pick, dose response (AID 652057); format: functional, cell-based
[3] = off-target signal loss in HeLa-CEM21 co-culture – HeLa F-luc CTL cells, cherry-picked, counter-screen for HIV-1 Env fusion inhibitor project, dose response (AID 652040); format: functional, cell-based;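 also: potency for signal decrease marking cytotoxic or nonspecific inhibition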
[4] = HIV-1 AD8 envelope cell-cell fusion blockers – cherry-pick, dose response (AID 652062); format: functional, cell-based;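 also: luciferase signal from cell-cell fusion driven by HIV-1 clade B AD8 Env; potency is for inhibitors of fusion seen as a drop in luminescence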
Phospholipase D2 = Phospholipase D2 (Homo sapiens, UniProt O14939); experiment: cellular phospholipase D2 inhibition IC50 – cell-based, dose response (AID 602147); format: functional;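 also: cellular assay in HEK293 cells overexpressing GFP-tagged PLD2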
Phospholipase D2, sequence (O14939 whole entry): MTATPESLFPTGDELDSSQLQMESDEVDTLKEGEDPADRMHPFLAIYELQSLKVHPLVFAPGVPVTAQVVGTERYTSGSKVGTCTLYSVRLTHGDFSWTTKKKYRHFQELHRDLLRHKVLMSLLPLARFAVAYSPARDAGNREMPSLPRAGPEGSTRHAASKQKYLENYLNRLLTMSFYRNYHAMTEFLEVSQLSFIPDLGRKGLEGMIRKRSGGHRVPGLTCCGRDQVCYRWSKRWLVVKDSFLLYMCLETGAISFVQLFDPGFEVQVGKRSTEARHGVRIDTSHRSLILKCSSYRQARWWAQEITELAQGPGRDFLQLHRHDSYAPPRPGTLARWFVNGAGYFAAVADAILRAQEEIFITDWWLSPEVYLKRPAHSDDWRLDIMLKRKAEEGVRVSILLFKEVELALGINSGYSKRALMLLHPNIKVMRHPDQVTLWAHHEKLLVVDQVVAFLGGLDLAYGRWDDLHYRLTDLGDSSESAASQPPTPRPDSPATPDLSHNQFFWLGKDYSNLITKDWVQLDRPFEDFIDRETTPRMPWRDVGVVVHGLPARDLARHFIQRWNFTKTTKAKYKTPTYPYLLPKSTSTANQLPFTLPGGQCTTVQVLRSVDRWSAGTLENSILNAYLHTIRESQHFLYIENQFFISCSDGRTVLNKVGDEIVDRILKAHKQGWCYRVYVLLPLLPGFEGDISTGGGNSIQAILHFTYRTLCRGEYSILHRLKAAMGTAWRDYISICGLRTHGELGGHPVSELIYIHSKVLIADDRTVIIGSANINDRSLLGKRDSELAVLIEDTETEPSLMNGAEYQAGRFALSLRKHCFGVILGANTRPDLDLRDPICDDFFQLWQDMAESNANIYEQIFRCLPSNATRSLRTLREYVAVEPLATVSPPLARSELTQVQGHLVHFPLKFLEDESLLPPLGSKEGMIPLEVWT

Phospholipase D1 = target: T1, Phospholipase D1 (Homo sapiens, UniProt Q13393); experiment: cellular phospholipase D1 inhibition IC50 – cell-based, dose response (AID 602151); format: functional;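 also: cellular PLD1 assay in Calu-1 cells stimulated with PMA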
T1 sequence (Q13393 whole entry): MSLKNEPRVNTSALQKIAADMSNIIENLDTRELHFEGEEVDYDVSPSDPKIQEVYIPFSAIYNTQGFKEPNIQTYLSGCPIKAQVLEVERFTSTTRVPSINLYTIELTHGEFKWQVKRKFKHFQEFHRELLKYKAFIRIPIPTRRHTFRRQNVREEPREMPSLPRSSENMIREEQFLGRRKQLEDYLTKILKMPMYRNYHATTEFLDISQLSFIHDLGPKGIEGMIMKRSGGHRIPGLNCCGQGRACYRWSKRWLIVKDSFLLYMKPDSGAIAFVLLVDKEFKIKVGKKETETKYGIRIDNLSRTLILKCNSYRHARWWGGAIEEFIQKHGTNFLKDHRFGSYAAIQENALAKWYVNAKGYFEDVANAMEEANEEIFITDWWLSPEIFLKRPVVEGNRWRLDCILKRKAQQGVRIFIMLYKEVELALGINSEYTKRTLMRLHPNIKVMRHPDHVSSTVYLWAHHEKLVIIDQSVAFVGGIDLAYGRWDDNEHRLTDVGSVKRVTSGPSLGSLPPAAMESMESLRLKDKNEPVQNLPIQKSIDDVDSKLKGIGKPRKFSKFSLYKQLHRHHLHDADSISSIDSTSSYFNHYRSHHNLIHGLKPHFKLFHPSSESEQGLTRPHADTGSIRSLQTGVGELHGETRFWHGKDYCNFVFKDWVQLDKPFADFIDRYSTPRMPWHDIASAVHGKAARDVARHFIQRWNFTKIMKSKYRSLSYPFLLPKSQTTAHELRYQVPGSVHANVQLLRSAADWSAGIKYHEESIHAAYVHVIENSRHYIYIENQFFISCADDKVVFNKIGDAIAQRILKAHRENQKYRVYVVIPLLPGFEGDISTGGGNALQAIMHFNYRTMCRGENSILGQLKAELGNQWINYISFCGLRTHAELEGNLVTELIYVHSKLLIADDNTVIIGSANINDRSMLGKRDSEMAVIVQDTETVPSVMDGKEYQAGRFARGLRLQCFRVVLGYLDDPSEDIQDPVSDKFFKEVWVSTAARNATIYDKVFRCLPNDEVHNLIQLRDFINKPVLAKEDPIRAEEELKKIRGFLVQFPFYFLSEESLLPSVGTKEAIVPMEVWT

[5] = target: Beta-2 adrenergic receptor (Homo sapiens, UniProt P07550); experiment: ADRB2 activation measured by internalization – cell-based, FAP fluorogen, flow cytometry, cherry pick 1, dose response (AID 588763); format: functional
Beta-2 adrenergic receptor, sequence (P07550 whole entry): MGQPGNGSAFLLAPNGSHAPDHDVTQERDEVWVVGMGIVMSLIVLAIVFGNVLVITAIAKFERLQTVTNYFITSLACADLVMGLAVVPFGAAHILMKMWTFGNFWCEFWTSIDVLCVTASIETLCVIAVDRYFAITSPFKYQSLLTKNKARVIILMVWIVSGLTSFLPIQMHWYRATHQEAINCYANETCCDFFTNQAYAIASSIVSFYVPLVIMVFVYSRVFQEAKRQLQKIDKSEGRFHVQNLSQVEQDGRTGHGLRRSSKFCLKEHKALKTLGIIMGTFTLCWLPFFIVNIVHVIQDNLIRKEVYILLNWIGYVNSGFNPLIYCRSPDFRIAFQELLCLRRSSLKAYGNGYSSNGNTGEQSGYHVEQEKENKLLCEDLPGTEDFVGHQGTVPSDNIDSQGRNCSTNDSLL

[6] = T. cruzi growth inhibition in host cells, dose response, cell-based, plate reader, dry powder, set 2 (AID 652275); format: functional
[7] = target: T2, Histone-lysine N-methyltransferase NSD2 (Homo sapiens, UniProt O96028); format: biochemical
T2 sequence (O96028 whole entry): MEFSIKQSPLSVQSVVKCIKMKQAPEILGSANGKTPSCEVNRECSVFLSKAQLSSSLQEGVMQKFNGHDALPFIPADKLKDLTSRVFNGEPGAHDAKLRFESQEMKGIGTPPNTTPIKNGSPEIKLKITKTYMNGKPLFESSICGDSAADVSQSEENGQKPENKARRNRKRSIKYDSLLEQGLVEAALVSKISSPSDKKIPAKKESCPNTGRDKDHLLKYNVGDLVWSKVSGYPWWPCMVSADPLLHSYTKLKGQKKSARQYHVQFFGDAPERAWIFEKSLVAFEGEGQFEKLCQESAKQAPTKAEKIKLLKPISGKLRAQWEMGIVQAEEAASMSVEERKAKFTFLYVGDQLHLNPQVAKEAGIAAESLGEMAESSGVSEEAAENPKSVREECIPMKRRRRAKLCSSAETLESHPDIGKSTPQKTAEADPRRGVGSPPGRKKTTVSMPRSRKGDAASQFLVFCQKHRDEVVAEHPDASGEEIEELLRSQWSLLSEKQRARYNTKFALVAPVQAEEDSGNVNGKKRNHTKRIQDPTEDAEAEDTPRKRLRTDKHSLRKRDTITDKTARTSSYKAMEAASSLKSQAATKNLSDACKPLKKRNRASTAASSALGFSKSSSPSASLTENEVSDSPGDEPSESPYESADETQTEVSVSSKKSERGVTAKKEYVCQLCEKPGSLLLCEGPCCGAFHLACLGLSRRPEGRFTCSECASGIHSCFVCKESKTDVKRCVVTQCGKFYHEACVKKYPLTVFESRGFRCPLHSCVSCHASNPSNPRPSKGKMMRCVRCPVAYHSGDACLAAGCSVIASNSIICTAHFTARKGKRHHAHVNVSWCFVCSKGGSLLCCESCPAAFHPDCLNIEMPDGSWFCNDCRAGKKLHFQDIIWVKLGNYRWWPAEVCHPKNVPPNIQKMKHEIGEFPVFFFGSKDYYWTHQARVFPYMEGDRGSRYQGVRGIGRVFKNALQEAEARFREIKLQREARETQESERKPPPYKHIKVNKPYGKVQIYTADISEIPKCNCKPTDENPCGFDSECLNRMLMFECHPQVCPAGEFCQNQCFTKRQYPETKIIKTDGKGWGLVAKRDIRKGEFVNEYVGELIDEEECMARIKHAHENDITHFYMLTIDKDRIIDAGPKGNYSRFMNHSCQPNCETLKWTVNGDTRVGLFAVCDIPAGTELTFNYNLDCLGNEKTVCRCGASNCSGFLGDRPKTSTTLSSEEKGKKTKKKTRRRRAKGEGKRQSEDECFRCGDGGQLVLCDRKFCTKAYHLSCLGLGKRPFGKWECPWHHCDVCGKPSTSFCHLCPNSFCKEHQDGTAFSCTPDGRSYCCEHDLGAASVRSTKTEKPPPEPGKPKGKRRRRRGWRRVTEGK

[8] = target: T3, DNA repair and recombination protein RAD54-like (Homo sapiens, UniProt Q92698); experiment: RAD54 Holliday junction migration blockers – biochemical, fluorescence, cherry-picked samples, dose series, confirmation (AID 651657); format: functional
T3 sequence (Q92698 whole entry): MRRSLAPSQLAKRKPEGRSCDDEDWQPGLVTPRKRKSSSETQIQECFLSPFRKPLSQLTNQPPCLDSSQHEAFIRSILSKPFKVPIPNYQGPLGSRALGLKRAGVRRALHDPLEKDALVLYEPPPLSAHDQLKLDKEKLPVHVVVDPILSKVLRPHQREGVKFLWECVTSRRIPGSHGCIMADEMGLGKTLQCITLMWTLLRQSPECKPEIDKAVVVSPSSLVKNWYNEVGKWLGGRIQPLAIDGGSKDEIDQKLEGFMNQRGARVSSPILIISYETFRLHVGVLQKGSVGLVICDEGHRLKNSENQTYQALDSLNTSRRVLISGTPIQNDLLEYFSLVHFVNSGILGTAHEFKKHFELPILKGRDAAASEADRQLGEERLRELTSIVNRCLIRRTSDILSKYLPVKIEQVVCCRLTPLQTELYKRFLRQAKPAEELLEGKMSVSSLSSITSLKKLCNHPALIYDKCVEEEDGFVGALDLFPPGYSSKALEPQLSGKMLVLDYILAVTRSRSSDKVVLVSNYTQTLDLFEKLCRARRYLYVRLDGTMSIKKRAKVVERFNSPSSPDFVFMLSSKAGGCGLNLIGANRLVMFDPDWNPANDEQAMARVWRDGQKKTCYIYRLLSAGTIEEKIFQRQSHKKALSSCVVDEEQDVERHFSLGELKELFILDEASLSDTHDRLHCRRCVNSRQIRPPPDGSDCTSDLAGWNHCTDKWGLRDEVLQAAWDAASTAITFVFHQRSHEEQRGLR

[9] = target: T4, RNA-binding protein pos-1 (Caenorhabditis elegans, UniProt G5EF15); experiment: disruptors of C. elegans POS-1 RNA interaction – biochemical, fluorescence polarization, dose response (AID 1964);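 also: purified POS-1 fused to maltose binding protein made in E. coli; potency of compounds blocking POS-1 binding to fluorescent RNA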
T4 sequence (G5EF15 whole entry): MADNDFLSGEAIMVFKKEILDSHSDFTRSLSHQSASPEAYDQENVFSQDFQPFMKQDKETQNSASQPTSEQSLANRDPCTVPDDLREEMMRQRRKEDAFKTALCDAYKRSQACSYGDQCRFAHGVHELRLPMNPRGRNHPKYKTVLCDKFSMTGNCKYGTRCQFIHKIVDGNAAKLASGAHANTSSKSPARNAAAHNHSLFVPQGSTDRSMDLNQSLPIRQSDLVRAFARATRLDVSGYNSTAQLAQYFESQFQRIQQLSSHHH

[10] = target: T5, Zinc finger protein mex-5 (Caenorhabditis elegans, UniProt Q9XUB2); experiment: potency of MEX-5 RNA-binding blockers – biochemical, C. elegans, fluorescence polarization, dose response (AID 1960)
T5 sequence (Q9XUB2 whole entry): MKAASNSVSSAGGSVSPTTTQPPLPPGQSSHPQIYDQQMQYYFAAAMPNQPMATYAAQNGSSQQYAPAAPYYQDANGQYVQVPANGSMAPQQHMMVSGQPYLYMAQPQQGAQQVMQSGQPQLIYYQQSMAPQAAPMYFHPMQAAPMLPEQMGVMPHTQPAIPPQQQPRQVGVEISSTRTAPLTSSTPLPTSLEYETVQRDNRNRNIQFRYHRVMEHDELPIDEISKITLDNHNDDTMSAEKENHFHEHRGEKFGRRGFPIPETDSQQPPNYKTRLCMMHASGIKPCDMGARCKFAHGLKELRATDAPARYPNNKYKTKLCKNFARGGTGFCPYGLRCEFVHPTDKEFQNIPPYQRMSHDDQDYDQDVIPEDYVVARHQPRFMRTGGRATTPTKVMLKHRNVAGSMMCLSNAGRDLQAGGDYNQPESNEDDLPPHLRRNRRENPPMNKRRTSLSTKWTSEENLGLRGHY

[11] = target: Peroxisome proliferator-activated receptor gamma/Nuclear receptor coactivator 1 (Homo sapiens, UniProt P37231); experiment: TR-FRET dose response biochemical High Throughput Screening assay for agonists of the steroid receptor coactivator 1 (SRC-1) recruitment by the peroxisome proliferator-activated receptor gamma (PPAR gamma): non-selective agonists. [Related pubchem assays (depositor defined):AID1300, AID1808, AID504735, AID631]; format: protein assay
[12] = target: Peroxisome proliferator-activated receptor gamma/Nuclear receptor coactivator 2 (Homo sapiens, UniProt P37231); experiment: (§1) TR-FRET dose response biochemical High Throughput Screening assay for agonists of the steroid receptor coactivator 2 (SRC-2) recruitment by the peroxisome proliferator-activated receptor gamma (PPAR gamma): non-selective agonists. [Related pubchem assays: 1297, 1032 ]; format: functional
[13] = target: Peroxisome proliferator-activated receptor gamma/Nuclear receptor coactivator 3 (Homo sapiens, UniProt P37231); experiment: as §1, with “3 (SRC-3)” for “2 (SRC-2)”, “1301 (Confirmation screen.), 1048 (Primary screen.)]” for “1297, 1032 ]”; format: functional
Peroxisome proliferator-activated receptor gamma/Nuclear receptor coactivator 3, sequence (P37231 whole entry): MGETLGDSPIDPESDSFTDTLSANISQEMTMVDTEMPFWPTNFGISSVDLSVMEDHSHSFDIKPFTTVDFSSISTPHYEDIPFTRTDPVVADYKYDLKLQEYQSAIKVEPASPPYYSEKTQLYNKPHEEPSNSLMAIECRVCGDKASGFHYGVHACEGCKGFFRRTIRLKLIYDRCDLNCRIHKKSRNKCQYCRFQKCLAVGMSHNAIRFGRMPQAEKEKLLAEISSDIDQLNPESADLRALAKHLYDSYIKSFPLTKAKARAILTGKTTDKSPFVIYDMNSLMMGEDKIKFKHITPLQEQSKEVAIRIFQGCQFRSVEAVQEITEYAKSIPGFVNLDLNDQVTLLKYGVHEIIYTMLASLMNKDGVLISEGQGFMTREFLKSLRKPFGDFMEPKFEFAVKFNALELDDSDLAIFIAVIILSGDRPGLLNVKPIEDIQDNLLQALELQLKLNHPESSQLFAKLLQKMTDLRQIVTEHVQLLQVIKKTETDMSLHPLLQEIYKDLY
Peroxisome proliferator-activated receptor gamma/Nuclear receptor coactivator 3, sequence (Q9Y6Q9 whole entry, further chain): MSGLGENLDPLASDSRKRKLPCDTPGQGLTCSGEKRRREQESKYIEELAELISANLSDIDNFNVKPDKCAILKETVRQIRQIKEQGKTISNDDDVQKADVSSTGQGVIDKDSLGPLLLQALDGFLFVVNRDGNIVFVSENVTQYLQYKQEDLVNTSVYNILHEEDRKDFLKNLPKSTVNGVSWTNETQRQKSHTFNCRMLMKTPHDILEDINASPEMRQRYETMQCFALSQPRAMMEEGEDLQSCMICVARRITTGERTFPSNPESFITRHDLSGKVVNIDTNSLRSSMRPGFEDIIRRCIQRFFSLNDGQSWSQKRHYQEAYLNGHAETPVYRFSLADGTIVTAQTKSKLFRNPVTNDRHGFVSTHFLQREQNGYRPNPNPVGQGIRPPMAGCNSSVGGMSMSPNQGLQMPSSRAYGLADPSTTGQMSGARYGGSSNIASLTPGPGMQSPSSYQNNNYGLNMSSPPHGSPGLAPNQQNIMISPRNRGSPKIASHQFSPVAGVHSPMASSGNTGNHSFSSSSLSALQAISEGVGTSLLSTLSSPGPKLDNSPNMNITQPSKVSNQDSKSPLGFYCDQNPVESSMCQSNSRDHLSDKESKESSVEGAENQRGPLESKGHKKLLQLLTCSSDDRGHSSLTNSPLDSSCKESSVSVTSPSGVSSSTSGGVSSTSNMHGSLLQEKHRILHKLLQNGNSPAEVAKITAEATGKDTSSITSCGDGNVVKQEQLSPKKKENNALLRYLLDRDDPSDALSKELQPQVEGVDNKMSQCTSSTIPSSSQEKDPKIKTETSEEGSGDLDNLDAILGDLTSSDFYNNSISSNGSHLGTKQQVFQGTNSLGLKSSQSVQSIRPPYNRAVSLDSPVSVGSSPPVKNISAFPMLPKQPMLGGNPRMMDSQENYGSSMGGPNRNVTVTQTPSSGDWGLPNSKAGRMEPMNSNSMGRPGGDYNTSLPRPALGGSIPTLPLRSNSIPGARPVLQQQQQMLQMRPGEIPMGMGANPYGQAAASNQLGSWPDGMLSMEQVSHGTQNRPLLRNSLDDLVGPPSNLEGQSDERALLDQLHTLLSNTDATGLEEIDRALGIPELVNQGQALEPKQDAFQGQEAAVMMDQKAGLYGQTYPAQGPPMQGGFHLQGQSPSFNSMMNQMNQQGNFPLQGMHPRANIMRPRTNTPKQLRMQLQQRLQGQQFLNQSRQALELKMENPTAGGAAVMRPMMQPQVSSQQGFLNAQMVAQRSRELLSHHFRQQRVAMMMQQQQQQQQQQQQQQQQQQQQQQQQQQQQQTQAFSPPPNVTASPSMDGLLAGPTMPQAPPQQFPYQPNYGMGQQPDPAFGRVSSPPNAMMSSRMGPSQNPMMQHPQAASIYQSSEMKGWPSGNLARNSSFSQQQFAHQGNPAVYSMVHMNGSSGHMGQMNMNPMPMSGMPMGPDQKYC

CCN1C(=O)[C@H]2[C@@H](c3ccc(C)cc3)N3C(=O)N(c4ccc(C(F)(F)F)cc4)C(=O)[C@@]3(CC(C)C)[C@H]2C1=O
AC50 [1]: 3.63 µM (active) | AC50 [2]: 2 µM (active) | AC50 [3]: 2.35 µM (active) | AC50 [4]: 4.99 µM (active)

CC(C)[C@@H](CN1CCC2(CC1)C(=O)NCN2c1ccccc1)NC(=O)c1cc2ccccc2[nH]1
IC50 (Phospholipase D2): 0.029 µM (active) | IC50 (Phospholipase D1): 0.007 µM (active)

COc1ccc(C2/C=C\CN(Cc3ccc(N(C)C)cc3)CC(=O)N2Cc2ccc(F)cc2)cc1 (stereo not given)
EC50 [5]: 4.34 µM (active)

COCCn1c(=S)[nH]c2cc(C(=O)N3CCN(Cc4ccc5c(c4)OCO5)CC3)ccc2c1=O
AC50 [2]: 29.3 µM (active) | AC50 [3]: 60.2 µM (active) | AC50 [4]: 44.6 µM (active)

O=C(NCCN1CCC(n2c(=O)[nH]c3cc(I)ccc32)CC1)C1CC1c1ccccc1 (stereo not given)
IC50 (Phospholipase D2): 0.345 µM (active) | IC50 (Phospholipase D1): 0.009 µM (active)

CCCCC(=O)Nc1ccc(C(=O)N2CCCC(C(=O)OCC)C2)cc1 (stereo not given)
EC50 [5]: 5.72 µM (active)

CN(C)C(=O)c1cccc(-c2ccc([C@@H]3[C@H](CO)N4CCCCN(C(=O)C5CCC5)C[C@@H]34)cc2)c1
AC50 [6]: 4.83 µM (active)

CC(C)(C)[S+]([O-])N1Cc2cc(C(=O)NCc3ccc4c(c3)OCO4)nc(-c3cccc(-c4cccc(F)c4)c3)c2[C@@H]1CCO (stereo not given in full)
AC50 [6]: 1.74 µM (active)

CCNCCNc1ccc([N+](=O)[O-])c2cccnc12
AC50 [7]: 13.6 µM (active) | AC50 [8]: 29.7 µM (active)

C[C@@H](CN1CCC(n2c(=O)[nH]c3ccccc32)CC1)NC(=O)c1cccnc1
IC50 (Phospholipase D2): 14 µM (active) | IC50 (Phospholipase D1): 0.085 µM (active)

COc1cc2c(c(OC)c1OC)[C@@]1(c3ccccc3)CCCC[C@H]1[C@@H]2NC(=O)C(F)(F)F
AC50 [1]: 7.65 µM (active) | AC50 [2]: 6.21 µM (active) | AC50 [3]: 5.7 µM (active)

CCCCOc1cccc(C(=O)Nc2ccc(NC(=O)c3ccco3)cc2)c1
EC50 [5]: 0.222 µM (active)

COc1ccc(C2C(C(=O)c3ccco3)=C(O)C(=O)N2c2nnc(C)s2)cc1 (stereo not given)
EC50 [9]: 109 µM (active) | EC50 [10]: 216 µM (active) | EC50 [11]: 19.8 µM (inactive) | EC50 [12]: 18.7 µM (not active) | EC50 [13]: > 79.4 µM (not active)

C[C@@H](CN1CCC2(CC1)C(=O)NCN2c1ccc(F)c(F)c1)NC(=O)c1cnc2ccccc2c1
IC50 (Phospholipase D2): 0.076 µM (active) | IC50 (Phospholipase D1): 0.016 µM (active)
